Experimental data as given in ChEMBL document CHEMBL4308841, “Synthesis, in vitro antiproliferative activity, and kinase inhibitory effects of pyrazole-containing diarylureas and diarylamides” (Eur J Med Chem, 2018).

Legend:
OVCAR-5 = assay: Growth inhibition of human OVCAR5 cells assessed as cell growth at 1 uM incubated for 48 hrs by sulforhodamine B assay relative to control; format: functional; conditions: OVCAR-5, 48 h, read-out: Activity
M14 [1] = assay: Growth inhibition of human M14 cells assessed as cell growth at 0.1 uM incubated for 48 hrs by sulforhodamine B assay relative to control; format: functional; conditions: M14, 48 h, read-out: Activity
SNB-75 = assay: Growth inhibition of human SNB75 cells assessed as cell growth at 1 uM incubated for 48 hrs by sulforhodamine B assay relative to control; format: functional; conditions: SNB-75, 48 h, read-out: Activity
786-0 = assay: Growth inhibition of human 786-0 cells incubated for 48 hrs by sulforhodamine B assay; format: functional, cell-based; conditions: 786-0, 48 h
A549 = assay: Growth inhibition of human A549/ATCC cells assessed as cell growth at 100 uM incubated for 48 hrs by sulforhodamine B assay relative to control; format: functional; conditions: A549, 48 h, read-out: Activity
M14 [2] = assay: Growth inhibition of human M14 cells assessed as cell growth at 1 uM incubated for 48 hrs by sulforhodamine B assay relative to control; format: functional; conditions: M14, 48 h, read-out: Activity
NCI-H226 = assay: Growth inhibition of human NCI-H226 cells incubated for 48 hrs by sulforhodamine B assay; format: functional, cell-based; conditions: NCI-H226, 48 h
SK-MEL-5 [3] = assay: Growth inhibition of human SK-MEL-5 cells incubated for 48 hrs by sulforhodamine B assay; format: functional, cell-based; conditions: SK-MEL-5, 48 h
SN12C = assay: Growth inhibition of human SN12C cells assessed as cell growth at 100 uM incubated for 48 hrs by sulforhodamine B assay relative to control; format: functional; conditions: read-out: Activity
NCI-H460 = assay: Growth inhibition of human NCI-H460 cells assessed as cell growth at 0.1 uM incubated for 48 hrs by sulforhodamine B assay relative to control; format: functional; conditions: NCI-H460, 48 h, read-out: Activity
HOP-62 = assay: Growth inhibition of human HOP62 cells assessed as cell growth at 0.01 uM incubated for 48 hrs by sulforhodamine B assay relative to control; format: functional; conditions: HOP-62, 48 h, read-out: Activity
BT-549 [4] = assay: Growth inhibition of human BT549 cells assessed as cell growth at 1 uM incubated for 48 hrs by sulforhodamine B assay relative to control; format: functional; conditions: BT-549, 48 h, read-out: Activity
SK-MEL-5 [5] = assay: Growth inhibition of human SK-MEL-5 cells assessed as cell growth at 1 uM incubated for 48 hrs by sulforhodamine B assay relative to control; format: functional; conditions: SK-MEL-5, 48 h, read-out: Activity
SF-268 [6] = assay: Growth inhibition of human SF268 cells assessed as cell growth at 100 uM incubated for 48 hrs by sulforhodamine B assay relative to control; format: functional; conditions: SF-268, 48 h, read-out: Activity
SF-268 [7] = assay: Growth inhibition of human SF268 cells incubated for 48 hrs by sulforhodamine B assay; format: functional, cell-based; conditions: SF-268, 48 h
Malme-3M = assay: Growth inhibition of human MALME-3M cells assessed as cell growth at 100 uM incubated for 48 hrs by sulforhodamine B assay relative to control; format: functional; conditions: read-out: Activity
UO-31 = assay: Growth inhibition of human UO31 cells assessed as cell growth at 0.1 uM incubated for 48 hrs by sulforhodamine B assay relative to control; format: functional; conditions: UO-31, 48 h, read-out: Activity
MCF7 = assay: Growth inhibition of human MCF7 cells incubated for 48 hrs by sulforhodamine B assay; format: functional, cell-based; conditions: MCF7, 48 h
OVCAR-4 = assay: Growth inhibition of human OVCAR4 cells assessed as cell growth at 1 uM incubated for 48 hrs by sulforhodamine B assay relative to control; format: functional; conditions: OVCAR-4, 48 h, read-out: Activity
SF-539 = assay: Growth inhibition of human SF539 cells incubated for 48 hrs by sulforhodamine B assay; format: functional, cell-based; conditions: SF-539, 48 h
SK-MEL-2 = assay: Growth inhibition of human SK-MEL-2 cells incubated for 48 hrs by sulforhodamine B assay; format: functional, cell-based; conditions: SK-MEL-2, 48 h
SR = assay: Growth inhibition of human SR cells incubated for 48 hrs by sulforhodamine B assay; format: functional, cell-based
BT-549 [8] = assay: Growth inhibition of human BT549 cells incubated for 48 hrs by sulforhodamine B assay; format: functional, cell-based; conditions: BT-549, 48 h
NCI-H522 = assay: Growth inhibition of human NCI-H522 cells assessed as cell growth at 100 uM incubated for 48 hrs by sulforhodamine B assay relative to control; format: functional; conditions: NCI-H522, 48 h, read-out: Activity
MOLT-4 = assay: Growth inhibition of human MOLT4 cells incubated for 48 hrs by sulforhodamine B assay; format: functional, cell-based; conditions: MOLT-4, 48 h
SK-MEL-28 = assay: Growth inhibition of human SK-MEL-28 cells assessed as cell growth at 100 uM incubated for 48 hrs by sulforhodamine B assay relative to control; format: functional; conditions: SK-MEL-28, 48 h, read-out: Activity
U-251 = assay: Growth inhibition of human U251 cells assessed as cell growth at 0.01 uM incubated for 48 hrs by sulforhodamine B assay relative to control; format: functional; conditions: U-251, 48 h, read-out: Activity
[9] = read-out: LC50 (the source's name)
[10] = read-out: pLC50 (the source's name) (converted)

## COc1cc(Cl)cc(-c2nn(-c3cccc(NC(=O)Nc4ccc(Cl)c(C(F)(F)F)c4)c3)cc2-c2ccncc2)c1
OVCAR-5
  growth at 1 µM: 81%
M14 [1]
  growth at 0.1 µM: 96%
SNB-75
  growth at 1 µM: 68%
786-0; read-out: GI50
  GI50: 1.59 µM
786-0; [9]
  CC50: 15.2 µM
786-0; read-out: TGI
  TGI: 42.7 µM
786-0; read-out: pGI50 (converted)
  GI50: 1.58 µM
786-0; [10]
  CC50: 15.1 µM
786-0; read-out: pTGI (converted)
  TGI: 9.77 µM
A549
  growth at 100 µM: -76%
M14 [2]
  growth at 1 µM: 65%
NCI-H226; read-out: GI50
  GI50: 2.5 µM
NCI-H226; read-out: LC50
  LC50: > 100 µM
NCI-H226; read-out: TGI
  TGI: 14.7 µM
NCI-H226; read-out: pGI50 (converted)
  GI50: 2.51 µM
NCI-H226; read-out: pLC50 (converted)
  LC50: > 100 µM
NCI-H226; read-out: pTGI (converted)
  TGI: 14.8 µM
SK-MEL-5 [3]; read-out: GI50
  GI50: 1.54 µM
SK-MEL-5 [3]; [9]
  CC50: 5.58 µM
SK-MEL-5 [3]; read-out: TGI
  TGI: 29.3 µM
SK-MEL-5 [3]; read-out: pGI50 (converted)
  GI50: 1.55 µM
SK-MEL-5 [3]; [10]
  CC50: 5.62 µM
SK-MEL-5 [3]; read-out: pTGI (converted)
  TGI: 8.32 µM
SN12C
  growth at 100 µM: -43%
NCI-H460
  growth at 0.1 µM: 102%
HOP-62
  growth at 0.01 µM: 100%
BT-549 [4]
  growth at 1 µM: 92%
SK-MEL-5 [5]
  growth at 1 µM: 83%
SF-268 [6]
  growth at 100 µM: -58%
SF-268 [7]; read-out: GI50
  GI50: 2.55 µM
SF-268 [7]; [9]
  CC50: 7.96 µM
SF-268 [7]; read-out: TGI
  TGI: 12.1 µM
SF-268 [7]; read-out: pGI50 (converted)
  GI50: 2.63 µM
SF-268 [7]; [10]
  CC50: 79.4 µM
SF-268 [7]; read-out: pTGI (converted)
  TGI: 12 µM
Malme-3M
  growth at 100 µM: -35%
UO-31
  growth at 0.1 µM: 55%
MCF7; read-out: GI50
  GI50: 1.01 µM
MCF7; read-out: LC50
  LC50: > 100 µM
MCF7; read-out: TGI
  TGI: 11 µM
MCF7; read-out: pGI50 (converted)
  GI50: 1.02 µM
MCF7; read-out: pLC50 (converted)
  LC50: > 100 µM
MCF7; read-out: pTGI (converted)
  TGI: 11 µM
OVCAR-4
  growth at 1 µM: 62%
SF-539; read-out: GI50
  GI50: 1.5 µM
SF-539; [9]
  CC50: 7.51 µM
SF-539; read-out: TGI
  TGI: 33.5 µM
SF-539; read-out: pGI50 (converted)
  GI50: 1.51 µM
SF-539; [10]
  CC50: 7.59 µM
SF-539; read-out: pTGI (converted)
  TGI: 3.39 µM
SK-MEL-2; read-out: GI50
  GI50: 1.79 µM
SK-MEL-2; [9]
  CC50: 9.59 µM
SK-MEL-2; read-out: TGI
  TGI: 42.1 µM
SK-MEL-2; read-out: pGI50 (converted)
  GI50: 1.78 µM
SK-MEL-2; [10]
  CC50: 10 µM
SK-MEL-2; read-out: pTGI (converted)
  TGI: 4.37 µM
SR; read-out: GI50
  GI50: 1.06 µM
SR; [9]
  CC50: > 100 µM
SR; read-out: TGI
  TGI: 43.8 µM
SR; read-out: pGI50 (converted)
  GI50: 1.07 µM
SR; [10]
  CC50: > 100 µM
SR; read-out: pTGI (converted)
  TGI: 4.37 µM
BT-549 [8]; read-out: GI50
  GI50: 2.38 µM
BT-549 [8]; [9]
  CC50: 25.8 µM
BT-549 [8]; read-out: TGI
  TGI: 65.5 µM
BT-549 [8]; read-out: pGI50 (converted)
  GI50: 2.4 µM
BT-549 [8]; [10]
  CC50: 28.8 µM
BT-549 [8]; read-out: pTGI (converted)
  TGI: 6.61 µM
NCI-H522
  growth at 100 µM: -66%
MOLT-4; read-out: GI50
  GI50: 1.23 µM
MOLT-4; [9]
  CC50: > 100 µM
MOLT-4; read-out: TGI
  TGI: 45.5 µM
MOLT-4; read-out: pGI50 (converted)
  GI50: 1.23 µM
MOLT-4; [10]
  CC50: > 100 µM
MOLT-4; read-out: pTGI (converted)
  TGI: 4.68 µM
SK-MEL-28
  growth at 100 µM: -88%
U-251
  growth at 0.01 µM: 98%
